Experimental data taken from patent US20220282271A1, “HERBICIDE RESISTANT PLANTS AND METHODS OF MAKING AND USING” (OFFICE OF INNOVATION ADVANCEMENT AND COMMERCIALIZATION, priority 2019, published 2022).

What was measured:
Ipomoea quamoclit = assay: Weed control screen: cypressvine morningglory; assay type: in vivo; details: 1.0 lb ai/a, applied approximately 3 weeks after emergence, relative to non-treated
Experimental: (§1) Herbicides were applied at a spray volume of 280 L/ha with no adjuvant added to any herbicide mixture. Weed control was rated on a 0 to 100 percent phytoxicity scale with 0 being no plant injury/phytotoxicity and 100 being complete plant dessication. Twenty-one weeds were evaluated for response to herbicides (Table 3). The weeds selected were a mixture of weeds common in agronomic and horticultural crops. Herbicide was applied to all species approximately 3 weeks after emergence. Plant phytotoxicity rated as percent control relative to the non-treated.

Abutilon theophrasti = assay: Weed control screen: velvetleaf; assay type: in vivo; details: 1.0 lb ai/a, applied approximately 3 weeks after emergence, relative to non-treated
Experimental: as §1

[1] = tested on: PPO1 from R1 and R2 E. indica biotypes (A212T) expressed in hemG mutant E. coli strain SASX38; assay: hemG mutant E. coli SASX38 complementation assay, R1 and R2 PPO1; assay type: cell-based, Eleusine indica; details: R1 and R2 alleles; LB medium; 0, 10, 50, 100, 200 μM tested; 37° C., 20 h
Text: (§2) Two putative PPO-inhibitor resistant (R-) and susceptible (S-) plasmids were created to test the role of the chloroplast-targeted PPO1 in the E. indica biotypes. The PPO1 from R1, R2 and S E. indica biotypes were cloned into the pBAD-TOPO expression vector using the pBAD TOPO™ TA Expression kit (Invitrogen, Carlsbad, Calif.), respectively. The PPO1 product was amplified using the same PCR primers and PCR reaction system as cDNA sequencing, so that the PPO1 translation began at the ATG start codon. Three different pBAD-TOPO PPO1 constructs were created and sequenced to confirm they were identical with the PPO1 gene from R1, R2 and S E. indica biotypes and there were no other nucleotide polymorphisms in the cloning experiment. R- and S-PPO1 plasmids were used to transform a hemG mutant Escherichia coli strain SASX38 by electroporation. The SASX38 mutant strain was grown on LB medium supplemented with 10 μg/mL hematin. Expression of the PPO1 in the transformed colonies of the SASX38 mutant strain were induced on LB medium with 2% L-arabinose. […]

[2] = tested on: PPO1 from S E. indica biotype (Ala212) expressed in hemG mutant E. coli strain SASX38; assay: hemG mutant E. coli SASX38 complementation assay, S PPO1; assay type: cell-based, Eleusine indica; details: LB medium; 0, 10, 50, 100, 200 μM tested; 37° C., 20 h
Text: as §2

Ipomoea hederacea = assay: Weed control screen: entireleaf morningglory; assay type: in vivo; details: 1.0 lb ai/a, applied approximately 3 weeks after emergence, relative to non-treated
Experimental: as §1

SMILES: CC(C)Oc1cc(-n2nc(C(C)(C)C)oc2=O)c(Cl)cc1Cl [Oxadiazon, oxadiazon]
- Percent control (0 to 100) (Ipomoea quamoclit): 100%
- Percent control (0 to 100) (Abutilon theophrasti): 100%
- Concentration at which the transformed E. coli were able to grow [1]: up to 200 μM
- Concentration in medium that inhibited the growth of the transformed E. coli [2]: 50 µM
- Percent control (0 to 100) (Ipomoea hederacea): 100%
